# Values joined by “and” are separate entries in the source; they are usually repeats but may differ in a detail not shown here. Identical values can stand only once. Like-named read-outs stand apart in the source and are kept apart here.
# What was measured:
# [1] = snar bond, DMSO
# [2] = molecular target: CFTR-mediated chloride transport (Homo sapiens, UniProt P13569); assay type: cell-based; details: enteroid cells incubated with test compound 18-24 hours, acute 10 μM forskolin and 300 nM Compound III; for Max. Activity: % of chloride transport with 3 μM Compound A, 3 μM Compound II and 300 nM acute Compound III triple combination control
# CFTR-mediated chloride transport, sequence (P13569 whole entry, looked up): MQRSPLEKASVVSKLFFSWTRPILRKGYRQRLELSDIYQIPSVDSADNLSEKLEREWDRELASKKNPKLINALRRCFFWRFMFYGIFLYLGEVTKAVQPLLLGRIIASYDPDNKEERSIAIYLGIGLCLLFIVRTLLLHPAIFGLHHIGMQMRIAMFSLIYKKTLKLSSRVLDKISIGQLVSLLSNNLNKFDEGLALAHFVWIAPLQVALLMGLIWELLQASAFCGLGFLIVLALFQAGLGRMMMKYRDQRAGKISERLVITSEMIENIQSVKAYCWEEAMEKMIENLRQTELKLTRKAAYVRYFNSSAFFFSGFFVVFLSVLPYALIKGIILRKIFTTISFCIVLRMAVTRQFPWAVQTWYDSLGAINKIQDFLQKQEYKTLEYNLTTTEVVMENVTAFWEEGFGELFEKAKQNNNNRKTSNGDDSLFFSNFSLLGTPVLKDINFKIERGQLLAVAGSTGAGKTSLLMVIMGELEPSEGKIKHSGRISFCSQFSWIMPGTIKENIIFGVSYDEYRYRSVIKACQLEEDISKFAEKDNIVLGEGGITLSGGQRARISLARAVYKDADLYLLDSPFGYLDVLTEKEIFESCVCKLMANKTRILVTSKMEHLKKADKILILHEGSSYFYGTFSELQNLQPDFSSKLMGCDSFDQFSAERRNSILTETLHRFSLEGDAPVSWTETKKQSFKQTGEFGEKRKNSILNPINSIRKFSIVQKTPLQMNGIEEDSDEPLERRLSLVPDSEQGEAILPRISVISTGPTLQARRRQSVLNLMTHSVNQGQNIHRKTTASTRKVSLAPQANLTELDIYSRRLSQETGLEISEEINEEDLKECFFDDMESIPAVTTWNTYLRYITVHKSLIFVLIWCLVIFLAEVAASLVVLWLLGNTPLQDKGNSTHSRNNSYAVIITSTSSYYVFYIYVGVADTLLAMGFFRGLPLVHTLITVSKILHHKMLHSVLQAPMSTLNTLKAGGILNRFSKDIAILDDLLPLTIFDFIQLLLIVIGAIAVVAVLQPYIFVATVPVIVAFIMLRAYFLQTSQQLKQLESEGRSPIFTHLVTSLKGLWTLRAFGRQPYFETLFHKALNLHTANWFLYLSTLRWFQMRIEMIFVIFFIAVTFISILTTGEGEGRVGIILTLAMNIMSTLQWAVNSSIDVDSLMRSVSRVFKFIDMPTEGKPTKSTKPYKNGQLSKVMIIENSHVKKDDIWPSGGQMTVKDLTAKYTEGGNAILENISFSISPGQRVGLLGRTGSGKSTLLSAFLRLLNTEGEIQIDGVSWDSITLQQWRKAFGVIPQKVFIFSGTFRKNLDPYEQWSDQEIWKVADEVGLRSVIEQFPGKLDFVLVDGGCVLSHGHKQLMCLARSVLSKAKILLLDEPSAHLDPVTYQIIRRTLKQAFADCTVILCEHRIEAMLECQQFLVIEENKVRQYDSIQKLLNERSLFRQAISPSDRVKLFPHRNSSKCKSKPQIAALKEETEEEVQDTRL
# Outline: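 Human intestinal enteroid cells incubated with compound 18–24 h at 37° C., then membrane potential dye (FLIPR) read 15 min after chloride-free stimulation with 10 μM forskolin, 100 μM IBMX and 300 nM Compound III. AUC expressed as % of triple-combination control (3 μM Compound A, 3 μM Compound II, 300 nM Compound III).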
smiles,measurement,setting,value
"CC1(C)CC2CN1c1nc(-n3ccc(OCCC4C5(CC5)C45CC5)n3)ccc1C(=O)NS(=O)(=O)c1cccc(n1)NCCO2 (racemic) [Compound 188, 8-[3-(2-{Dispiro[2.0.2.1]heptan-7-yl}ethoxy)-1H-pyrazol-1-yl]-12,12-dimethyl-15-oxa-2λ^6-thia-3,9,11,18,23-pentaazatetracyclo[17.3.1.111,14.05,10]tetracosa-1(23),5(10),6,8,19,21-hexaene-2,2,4-trione]","ring closure, yield after HPLC","[1]; from CC1(C)CC(OCCNc2cccc(S(=O)(=O)NC(=O)c3ccc(-n4ccc(OCCC5C6(CC6)C56CC6)n4)nc3Cl)n2)CN1, 15-membered ring, K2CO3/CsF/3A MS, 108.4 mM, 140.0 °C, 20.0 h, 2 steps",97%
same,EC50,[2],< 1000 nM
same,Max. Activity,[2],+++ (+++ is >60%)
"[2H]C1(CCOc2ccn(-c3ccc4c(n3)N3C[C@@H](CCCNc5cccc(n5)S(=O)(=O)NC4=O)CC3(C)C)n2)C2(CC2)C12CC2 [Compound 253, (14S)-8-(3-{2-[(7-deuterio)dispiro[2.0.2.1]heptan-7-yl]ethoxy}-1H-pyrazol-1-yl)-12,12-dimethyl-2λ^6-thia-3,9,11,18,23-pentaazatetracyclo[17.3.1.111,14.05,10]tetracosa-1(22),5,7,9,19(23),20-hexaene-2,2,4-trione]","ring closure, yield after HPLC","[1]; from [2H]C1(CCOc2ccn(-c3ccc(C(=O)NS(=O)(=O)c4cccc(NCCC[C@@H]5CN(C(=O)OC(C)(C)C)C(C)(C)C5)n4)c(Cl)n3)n2)C2(CC2)C12CC2, 15-membered ring, K2CO3/CsF/3A MS, 20.4 mM, 150.0 °C, 2 steps",43%
same,EC50,[2],< 1000 nM
same,Max. Activity,[2],+++ (+++ is >60%)
"CC1(C)CC2CCCCc3cccc(n3)S(=O)(=O)NC(=O)c3ccc(-n4ccc(OCCC5(C(F)(F)F)CC5)n4)nc3N1C2 (stereo not drawn) [Compound 78, 12,12-dimethyl-8-(3-{2-[1-(trifluoromethyl)cyclopropyl]ethoxy}-1H-pyrazol-1-yl)-2λ^6-thia-3,9,11,23-tetraazatetracyclo[17.3.1.111,14.05,10]tetracosa-1(23),5,7,9,19,21-hexaene-2,2,4-trione]","ring closure, yield after HPLC","[1]; from CC(C)(C)OC(=O)N1CC(CCCCc2cccc(S(=O)(=O)NC(=O)c3ccc(-n4ccc(OCCC5(C(F)(F)F)CC5)n4)nc3Cl)n2)CC1(C)C, 15-membered ring, HCl (Boc off), K2CO3/CsF/3A MS, 65.0 mM, 150.0 °C, 2 steps",37%
same,EC50,[2],< 1000 nM
same,Max. Activity,[2],+++ (+++ is >60%)
"CC1(C)CCC2CCCOc3cccc(n3)S(=O)(=O)NC(=O)c3ccc(-n4ccc(OCCC5(C(F)(F)F)CC5)n4)nc3N21 (stereo not drawn) [Compound 147, 12,12-dimethyl-8-(3-{2-[1-(trifluoromethyl)cyclopropyl]ethoxy}-1H-pyrazol-1-yl)-19-oxa-2λ^6-thia-3,9,11,24-tetraazatetracyclo[18.3.1.05,10.011,15]tetracosa-1(24),5(10),6,8,20,22-hexaene-2,2,4-trione]","ring closure, yield after HPLC","[1]; from CC(C)(C)OC(=O)N1C(CCCOc2cccc(S(=O)(=O)NC(=O)c3ccc(-n4ccc(OCCC5(C(F)(F)F)CC5)n4)nc3Cl)n2)CCC1(C)C, 14-membered ring, K2CO3/CsF/3A MS, 66.1 mM, 140.0 °C, 2 steps",5%
same,EC50,[2],< 1000 nM
same,Max. Activity,[2],++ (++ is 30-60%)
"CC1(C)CC2CCCCNc3ccc(nc3)S(=O)(=O)NC(=O)c3ccc(-n4ccc(OCCC5(C(F)(F)F)CC5)n4)nc3N1C2 (stereo not drawn) [Compound 123, 12,12-Dimethyl-8-(3-{2-[1-(trifluoromethyl)cyclopropyl]ethoxy}-1H-pyrazol-1-yl)-2λ^6-thia-3,9,11,19,22-pentaazatetracyclo[18.2.2.111,14.05,10]pentacosa-1(22),5(10),6,8,20,23-hexaene-2,2,4-trione]","ring closure, yield after HPLC","[1]; from CC(C)(C)OC(=O)N1CC(CCCCNc2ccc(S(=O)(=O)NC(=O)c3ccc(-n4ccc(OCCC5(C(F)(F)F)CC5)n4)nc3Cl)nc2)CC1(C)C, 17-membered ring, K2CO3/CsF/3A MS, 110.5 mM, 150.0 °C, 2 steps",4%
same,EC50,[2],< 1000 nM
same,Max. Activity,[2],+++ (+++ is >60%)
"Cc1ccc2nc1OCCC[C@@H]1CN(c3nc(-n4ccc(OCCC5(C(F)(F)F)CC5)n4)ccc3C(=O)NS2(=O)=O)C(C)(C)C1 [Compound 109, (14S)-12,12,20-Trimethyl-8-(3-{2-[1-(trifluoromethyl)cyclopropyl]ethoxy}-1H-pyrazol-1-yl)-18-oxa-2λ^6-thia-3,9,11,23-tetraazatetracyclo[17.3.1.111,14.05,10]tetracosa-1(23),5(10),6,8,19,21-hexaene-2,2,4-trione]","ring closure, yield after HPLC","[1]; from Cc1ccc(S(=O)(=O)NC(=O)c2ccc(-n3ccc(OCCC4(C(F)(F)F)CC4)n3)nc2Cl)nc1OCCC[C@@H]1CN(C(=O)OC(C)(C)C)C(C)(C)C1, 15-membered ring, HCl (Boc off), K2CO3/CsF/3A MS, 62.8 mM, 140.0 °C, 2 steps",32%
same,EC50,[2],< 1000 nM
same,Max. Activity,[2],++ (++ is 30-60%)
"CC1(C)CC2CCCCn3ccc(n3)S(=O)(=O)NC(=O)c3ccc(-n4ccc(OCCCC5(C(F)(F)F)CC5)n4)nc3N1C2 (stereo not drawn) [Compound 275, 21,21-Dimethyl-4-(3-{3-[1-(trifluoromethyl)cyclopropyl]propoxy}-1H-pyrazol-1-yl)-10λ^6-thia-1,3,9,14,23-pentaazatetracyclo[17.2.1.111,14.02,7]tricosa-2,4,6,11(23),12-pentaene-8,10,10-trione]","ring closure, yield after HPLC","[1]; from CC1(C)CC(CCCCn2ccc(S(=O)(=O)NC(=O)c3ccc(-n4ccc(OCCCC5(C(F)(F)F)CC5)n4)nc3Cl)n2)CN1, 15-membered ring, K2CO3/CsF/3A MS, 24.7 mM, 150.0 °C, 18.0 h",47%
same,EC50,[2],1000 to 3000 nM
same,Max. Activity,[2],++ (++ is 30-60%)
"CC(C)C(COc1ccn(-c2ccc3c(n2)N2C[C@@H](CCCNc4cccc(n4)S(=O)(=O)NC3=O)CC2(C)C)n1)C(C)C [Compound 227, (14S)-12,12-Dimethyl-8-{3-[3-methyl-2-(propan-2-yl)butoxy]-1H-pyrazol-1-yl}-2λ^6-thia-3,9,11,18,23-pentaazatetracyclo[17.3.1.111,14.05,10]tetracosa-1(23),5(10),6,8,19,21-hexaene-2,2,4-trione]","ring closure, yield after HPLC","[1]; from CC(C)C(COc1ccn(-c2ccc(C(=O)NS(=O)(=O)c3cccc(NCCC[C@@H]4CNC(C)(C)C4)n3)c(Cl)n2)n1)C(C)C, 15-membered ring, K2CO3/CsF/4A MS, 73.3 mM, 150.0 °C",20%
same,EC50,[2],< 1000 nM
same,Max. Activity,[2],+++ (+++ is >60%)
"CC1(C)CC2CCCn3ccc(n3)S(=O)(=O)NC(=O)c3ccc(-n4ccc(OCCC(C5CC5)C5CC5)n4)nc3N1C2 (stereo not drawn) [Compound 141, 4-[3-(3,3-Dicyclopropylpropoxy)-1H-pyrazol-1-yl]-20,20-dimethyl-10λ^6-thia-1,3,9,14,22-pentaazatetracyclo[16.2.1.111,14.02,7]docosa-2,4,6,11(22),12-pentaene-8,10,10-trione]","ring closure, yield after HPLC","[1]; from CC(C)(C)OC(=O)N1CC(CCCn2ccc(S(=O)(=O)NC(=O)c3ccc(-n4ccc(OCCC(C5CC5)C5CC5)n4)nc3Cl)n2)CC1(C)C, 14-membered ring, K2CO3/CsF/3A MS, 66.2 mM, 150.0 °C, 2 steps",23% and 22%
same,EC50,[2],< 1000 nM
same,Max. Activity,[2],+++ (+++ is >60%)
CC(C)COc1cc(F)cc(-c2ccc3c(n2)N2C[C@@H](CCCn4ccc(n4)S(=O)(=O)NC3=O)CC2(C)C)c1 [Compound 226],"ring closure, yield after HPLC","[1]; from CC(C)COc1cc(F)cc(-c2ccc(C(=O)NS(=O)(=O)c3ccn(CCC[C@@H]4CN(C(=O)OC(C)(C)C)C(C)(C)C4)n3)c(Cl)n2)c1, 14-membered ring, K2CO3/CsF/3A MS, 15.0 mM, 150.0 °C, 2 steps",34%
same,EC50,[2],< 1000 nM
same,Max. Activity,[2],++ (++ is 30-60%)
"CC1(C)CC2CN1c1nc(-n3ccc(OCCC4(C(F)(F)F)CC4)n3)ccc1C(=O)NS(=O)(=O)c1cccc(n1)N2 (stereo not drawn) [Compound 31, 5,5-dimethyl-9-(3-{2-[1-(trifluoromethyl)cyclopropyl]ethoxy}-1H-pyrazol-1-yl)-15λ^6-thia-2,6,8,14,20-pentaazatetracyclo[14.3.1.13,6.07,12]henicosa-1(20),7,9,11,16,18-hexaene-13,15,15-trione]","ring closure, yield after HPLC","[1]; from 2-chloro-N-[[6-[(5,5-dimethylpyrrolidin-3-yl)amino]-2-pyridyl]sulfonyl]-6-[3-[2-[1-(trifluoromethyl)cyclopropyl]ethoxy]pyrazol-1-yl]pyridine-3-carboxamide (dihydrochloride salt), 12-membered ring, K2CO3/CsF/4A MS, 10.5 mM, 150.0 °C",37%
same,EC50,[2],> 3000 nM
same,Max. Activity,[2],+ (+ is <30%)
"CC(C)(C)COc1ccn(-c2ccc3c(n2)N2CC(CCNc4cccc(n4)S(=O)(=O)NC3=O)CC2(C)C)n1 (stereo not drawn) [Compound 1, 11-[3-(2,2-dimethylpropoxy)-1H-pyrazol-1-yl]-7,7-dimethyl-17λ^6-thia-2,8,10,16,22-pentaazatetracyclo[16.3.1.15,8.09,14]tricosa-1(21),9(14),10,12,18(22),19-hexaene-15,17,17-trione]","ring closure, yield after HPLC","[1]; from CC(C)(C)COc1ccn(-c2ccc(C(=O)NS(=O)(=O)c3cccc(NCCC4CNC(C)(C)C4)n3)c(Cl)n2)n1, 14-membered ring, K2CO3, 155.0 °C, 62.0 h, 2 steps",10%
same,EC50,[2],< 1000 nM
same,Max. Activity,[2],+++ (+++ is >60%)
"CC1(C)CC2CN1c1nc(-n3ccc(OCCC4(C(F)(F)F)CC4)n3)ccc1C(=O)NS(=O)(=O)c1ccn(n1)CCO2 (racemic) [Compound 164, 20,20-Dimethyl-4-(3-{2-[1-(trifluoromethyl)cyclopropyl]ethoxy}-1H-pyrazol-1-yl)-17-oxa-10λ^6-thia-1,3,9,14,22-pentaazatetracyclo[16.2.1.111,14.02,7]docosa-2(7),3,5,11(22),12-pentaene-8,10,10-trione]","ring closure, yield after HPLC","[1]; from CC(C)(C)OC(=O)N1CC(OCCn2ccc(S(=O)(=O)NC(=O)c3ccc(-n4ccc(OCCC5(C(F)(F)F)CC5)n4)nc3Cl)n2)CC1(C)C, 14-membered ring, K2CO3/CsF/3A MS, 62.6 mM, 140.0 °C, 2 steps",30%
same,EC50,[2],1000 to 3000 nM
same,Max. Activity,[2],++ (++ is 30-60%)
